The values below come from paper PMC8069799, “Alpha-Glucosidase Inhibitory Diterpenes from Euphorbia antiquorum Growing in Vietnam” (Molecules, 2021).

The target of test [1] is Saccharomyces cerevisiae α-glucosidase (E.C 3.2.1.20). Briefly: Alpha-glucosidase inhibition assay. Format: biochemical. The following applies: 0.2 U/mL enzyme, 5.0 mM pNPG, pH 6.9 sodium phosphate buffer, 37 °C, triplicate; read-out: Alpha-glucosidase inhibitory activity IC50. The method, then: The alpha-glucosidase (0.2 U/mL) and substrate (5.0 mM pNPG) were dissolved in 100 mM pH 6.9 sodium phosphate buffer. The inhibitor (50 µL) was preincubated with alpha-glucosidase at 37 °C for 20 min, and then the substrate (40 µL) was added to the reaction mixture. The enzymatic reaction was carried out at 37 °C for 20 min and stopped by adding 0.2 M Na2CO3 (130 μL). Enzymatic activity was quantified by measuring absorbance at 405 nm (CLARIOstar plus, BMG LABTECH, Ortenberg, Germany). All samples were analyzed in triplicate at five different concentrations around the IC50 values, and the mean values were retained. The inhibition percentage (%) was calculated by the following equation:Inhibition (%) = [1 − (Asample/Acontrol)] × 100.(1)

The subject of another test is alpha-glucosidase. Nature of the test: Inhibitory type assay of 3 on alpha-glucosidase (Lineweaver–Burk plots, secondary plots). The class given is biochemical, yeast. The method, then: In order to examine the inhibition mechanism of 3, their activity was measured at the different concentration of 4-nitrophenyl […] (pNPG).
The mechanisms of inhibition of alpha-glucosidase by 3 were determined by Lineweaver–Burk plots (Microsoft Excel 2010, Redmond, WA, USA), using methods similar to those reported in the literature. Enzyme inhibition due to various concentrations of the 3 were evaluated by monitoring the effects of different concentrations of the substrate. For Lineweaver–Burk double reciprocal plots 1/enzyme velocity (1/V) vs. 1/substrate concentration (1/[S]), the inhibition type was determined using various concentrations of pNPG (1 mM, 2 mM, and 4 mM) as a substrate in the presence of different concentrations of the test compound (0, 13.8, 27.7, and 55.5 µM). The experiments were carried out in three replicates. The mixtures were incubated at 37 °C and the optical density was measured at 405 nm every 1 min for 30 min with the Clariostar Labtech microplate reader (Ortenberg, Germany). Optimal concentrations of the tested compound were chosen based on the IC50 value. The inhibition constants were obtained graphically from secondary plots (Microsoft Excel 2010, Redmond, WA, USA).

As to `CC1(C)C(O)CC(O)C2(C)C3CC4CCC3(CCC12)CC4(O)CO` (single isomer, unassigned; ent-1) [Compound 1, ent-1α,3α,16β,17-tetrahydroxyatisane], in test [1], the IC50 was found to be 125 µM.
Same read-out and setting: to `CCOC(=O)CC[C@]1(C)[C@@H](C(C)(C)O)CC[C@@]23CC[C@@H](C[C@H]21)[C@](O)(CO)C3` (single isomer, unassigned; ent-3) [Compound 2, ethyl ent-3,4-seco-4,16β,17-trihydroxyatisane-3-carboxylate] belongs 131 µM; to `CC(=O)O[C@H]1CC[C@@]2(C)C3C[C@@H]4CC[C@@]3(CC[C@@H]2C1(C)C)C[C@@]4(O)CO` (single isomer, unassigned; ent-3) [Compound 4, ent-3α-acetoxy-16β,17-dihydroxyatisane], 102 µM.
Consider `CC1(C)OC[C@@]2(C[C@]34CC[C@H]2C[C@H]3[C@]2(C)CCC(=O)C(C)(C)[C@H]2CC4)O1` [Compound 3, ent-atisane-3-oxo-16β,17-acetonide], for which the IC50 in test [1] is 69.6 µM. Moreover, in the test on alpha-glucosidase (Lineweaver–Burk plots, Vmax decreased while Km remained constant), the inhibition type entry was “noncompetitive inhibitor”. Moreover, on alpha-glucosidase (pNPG 1, 2, 4 mM, inhibitor 0, 13.8, 27.7, 55.5 µM, secondary plot of slope vs. inhibitor concentration, read-out: inhibition constant (Ki)), the inhibition constant Ki is 65.8 µM.
Turning to `CC1(C)C(=O)CC[C@@]2(C)[C@H]1CC[C@@]13C[C@H](CC[C@@H]12)[C@@](O)(CO)C3` [Compound 6, calliterpenone], the IC50 in test [1] stood at 156 µM.
Same read-out and setting: to `CC(=O)OC1C(C)C(=O)C23CC(C)C(O)C2(C=C(C)C(O)C(O)C2C1C2(C)C)O3` (centres unmarked) [Compound 7, ingol 12-acetate] belongs 115 µM.

By IC50 is commonly meant the concentration that inhibits the measured activity by half. Broadly, the Ki is a measure of affinity in units of concentration, obtained from inhibition or displacement.
